The compounds below were run against T1, CFTR (F508del/MF-HBE cells) (Homo sapiens, UniProt P13569, DEL508-508) (assay: Ussing chamber assay of CFTR-mediated short-circuit currents, Assay D (single concentration of 1 μM)). Conditions: with 44 nM potentiator and 18 μM Tezacaftor, 18-24 hours, 20% human serum.
T1 construct: human bronchial epithelial (HBE) cells derived from CF subjects heterozygous for F508del and a minimal function CFTR mutation (F508del/MF-HBE); endogenous in cells; host or cells: Primary human bronchial epithelial cells from CF subjects (F508del/MF genotype), differentiated at an air-liquid interface
T1 sequence (P13569 with tags, fused parts or gaps DEL508-508): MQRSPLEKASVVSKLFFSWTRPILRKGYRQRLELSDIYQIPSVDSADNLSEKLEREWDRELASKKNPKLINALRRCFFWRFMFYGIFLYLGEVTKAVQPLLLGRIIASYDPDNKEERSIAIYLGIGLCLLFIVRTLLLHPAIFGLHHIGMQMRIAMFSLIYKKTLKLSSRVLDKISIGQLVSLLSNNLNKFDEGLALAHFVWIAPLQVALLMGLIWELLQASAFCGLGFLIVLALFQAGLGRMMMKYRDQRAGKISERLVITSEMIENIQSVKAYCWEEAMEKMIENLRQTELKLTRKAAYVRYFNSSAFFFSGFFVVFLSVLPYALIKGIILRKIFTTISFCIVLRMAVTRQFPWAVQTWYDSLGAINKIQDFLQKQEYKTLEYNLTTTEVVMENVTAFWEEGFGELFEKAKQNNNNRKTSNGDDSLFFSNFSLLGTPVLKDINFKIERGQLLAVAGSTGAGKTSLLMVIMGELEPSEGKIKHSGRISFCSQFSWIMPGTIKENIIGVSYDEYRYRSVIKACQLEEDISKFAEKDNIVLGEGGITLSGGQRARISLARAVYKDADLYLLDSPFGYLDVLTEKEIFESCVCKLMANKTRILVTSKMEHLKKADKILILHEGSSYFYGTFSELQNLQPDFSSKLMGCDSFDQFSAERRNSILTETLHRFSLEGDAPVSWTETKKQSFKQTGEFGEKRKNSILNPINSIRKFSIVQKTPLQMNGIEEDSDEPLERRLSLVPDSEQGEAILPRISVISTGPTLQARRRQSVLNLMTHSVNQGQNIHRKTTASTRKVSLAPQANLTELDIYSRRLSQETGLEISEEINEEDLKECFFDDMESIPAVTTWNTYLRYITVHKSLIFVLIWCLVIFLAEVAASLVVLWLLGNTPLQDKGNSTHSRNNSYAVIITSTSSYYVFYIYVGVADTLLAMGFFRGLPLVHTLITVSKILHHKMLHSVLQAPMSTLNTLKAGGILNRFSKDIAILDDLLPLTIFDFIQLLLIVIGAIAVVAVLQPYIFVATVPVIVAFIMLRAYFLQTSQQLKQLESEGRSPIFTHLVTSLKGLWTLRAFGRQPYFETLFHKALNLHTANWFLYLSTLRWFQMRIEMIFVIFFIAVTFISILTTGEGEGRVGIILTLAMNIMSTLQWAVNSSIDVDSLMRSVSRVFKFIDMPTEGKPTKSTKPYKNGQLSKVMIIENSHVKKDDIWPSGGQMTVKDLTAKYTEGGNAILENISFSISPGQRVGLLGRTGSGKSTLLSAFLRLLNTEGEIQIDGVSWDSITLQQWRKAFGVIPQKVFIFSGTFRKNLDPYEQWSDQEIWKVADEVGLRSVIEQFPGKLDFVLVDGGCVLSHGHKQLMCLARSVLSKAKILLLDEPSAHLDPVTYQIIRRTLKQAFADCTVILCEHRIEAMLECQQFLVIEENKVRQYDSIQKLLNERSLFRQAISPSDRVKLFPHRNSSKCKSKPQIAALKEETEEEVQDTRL
Type: cell-based
Outline: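 F508del/MF-HBE cells grown at air-liquid interface were incubated 18-24 h at 37 °C in 20% human serum with correctors plus 18 μM tezacaftor and a fixed partner compound (33 nM for concentration series, 44 nM at 1 μM). ISC was read at 0 mV after 20 μM forskolin, minus the post-inhibitor current.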

| D activity at 1 μM (%) | Compound |
| --- | --- |
| ++ (++ is 30-60%) | CCC(C)(C)C[C@H]1COc2cc(-c3c(C)cccc3C)nc(n2)NS(=O)(=O)c2cccc(c2)C(=O)N1Cc1cnc2oc(C(C)C)cc2n1 (stereo in doubt) [Compound I-39] |
| +++ (+++ is >60%) | Cc1cccc(CCC(C)C)c1-c1nc2nc(c1C)OC[C@@H](CC(C)(C)C)N(Cc1cnc3oc(C4CC4)cc3n1)C(=O)c1cccc(c1)S(=O)(=O)N2 (atropisomer, axis not shown) [Compound I-205] |
| +++ (+++ is >60%) | Cc1cccc(C)c1-c1cc2nc(n1)NS(=O)(=O)c1cccc(c1)C(=O)N(Cc1nc3cc(C(C)(C)C)oc3cc1F)[C@H](CC13CC(C1)C3)CO2 [Compound I-244] |
| +++ (+++ is >60%) | Cc1cccc(C)c1-c1cc2nc(n1)NS(=N)(=O)c1cccc(c1)C(=O)N(Cc1cnc3oc(C4CC4)cc3n1)[C@H](CC(C)(C)C)CO2 (single isomer, unassigned) [Compound I-147] |
| +++ (+++ is >60%) | Cc1cccc(C)c1-c1cc2nc(n1)NS(=O)(=O)c1cccc(c1)C(=O)N(Cc1cnc3oc(C(C)C)cc3n1)[C@H](CC1(F)CCC1)CO2 [Compound I-124] |
| +++ (+++ is >60%) | Cc1cccc(C)c1-c1cc2nc(n1)NS(=O)(=O)c1cccc(c1)C(=O)N(Cc1ncc3oc(C4CC4)cc3n1)[C@H](COC(C)C)CO2 [Compound I-200] |
| +++ (+++ is >60%) | Cc1cccc(C)c1-c1nc2nc(c1C)OC[C@@H](CC(C)(C)C)N(Cc1ccc3oc(C4(C)CC4)cc3n1)C(=O)c1cccc(c1)S(=O)(=O)N2 [Compound I-235] |
| +++ (+++ is >60%) | Cc1cccc(C)c1-c1cc2nc(n1)NS(=O)(=O)c1cccc(c1)C(=O)N(Cc1cnc3oc(C(C)C)cc3n1)[C@H](CC1CCCO1)CO2 (single isomer, unassigned) [Compound I-22] |
| +++ (+++ is >60%) | Cc1cccc(C)c1-c1cc2nc(n1)NS(=O)(=O)c1cccc(c1)C(=O)N(Cc1cnc3cn(C(C)C)nc3n1)[C@H](CC(C)(C)C)CO2 [Compound I-111] |
| +++ (+++ is >60%) | Cc1cccc(C)c1-c1cc2nc(n1)NS(=O)(=O)c1cccc(c1)C(=O)N(Cc1cnc3oc(C4(C)CCC4)cc3n1)[C@H](COC(C)C)CO2 [Compound I-144] |
| +++ (+++ is >60%) | Cc1cccc(C)c1-c1cc2nc(n1)NS(=O)(=O)c1cccc(c1)C(=O)N(Cc1cnc3nc(C4CC4)n(C)c3n1)[C@H](CC(C)(C)C)CO2 [Compound I-141] |
| +++ (+++ is >60%) | Cc1cccc(C)c1-c1cc2nc(n1)NS(=O)(=O)c1cccc(c1)C(=O)N(Cc1cnc3oc(C(C)C)c(C(F)(F)F)c3n1)[C@H](CC13CC(C1)C3)CO2 [Compound I-114] |
| +++ (+++ is >60%) | Cc1cccc(C)c1-c1cc2nc(n1)NS(=O)(=O)c1cccc(c1)C(=O)N(Cc1ncc3oc(C(C)(C)C)cc3n1)[C@H](CC(C)(C)C)CO2 [Compound I-250] |
| +++ (+++ is >60%) | Cc1cccc(C)c1-c1cc2nc(n1)NS(=O)(=O)c1cccc(c1)C(=O)N(Cc1cnc3nn(C(C)C)cc3n1)[C@H](CC(C)(C)C)CO2 [Compound I-169, (11R)-6-(2,6-Dimethylphenyl)-11-(2,2-dimethylpropyl)-12-[(2-isopropylpyrazolo[3,4-b]pyrazin-5-yl)methyl]-2,2-dioxo-9-oxa-2λ^6-thia-3,5,12,19-tetrazatricyclo[12.3.1.14,8]nonadeca-1(18),4(19),5,7,14,16-hexaen-13-one] |
| +++ (+++ is >60%) | Cc1cccc(C)c1-c1cc2nc(n1)NS(=O)(=O)c1cccc(c1)C(=O)N(Cc1cnc3c(n1)C(=O)N(C(C)C)C3)[C@@H](CCC1(C)CC1)CO2 (stereo in doubt) [III-22] |
| +++ (+++ is >60%) | Cc1cccc(C)c1-c1cc2nc(n1)NS(=O)(=O)c1cccc(c1)C(=O)N(Cc1nc3cc(C(C)C)oc3cc1F)[C@H](COC(C)C)CO2 [Compound I-77] |
| +++ (+++ is >60%) | Cc1cccc(C)c1-c1cc2nc(n1)NS(=O)(=O)c1cccc(c1)C(=O)N(Cc1ccc3oc(C4(C)CC4)cc3n1)[C@H](COC(C)C)CO2 [Compound I-241] |
| +++ (+++ is >60%) | Cc1cccc(C)c1-c1nc2nc(c1C)OC[C@@H](COC(C)C)N(Cc1cnc3oc(C(C)(C)C)cc3n1)C(=O)c1cccc(c1)S(=O)(=O)N2 [Compound I-216] |
| +++ (+++ is >60%) | Cc1cccc(C)c1-c1cc2nc(n1)NS(=O)(=O)c1cccc(c1)C(=O)N(Cc1cnc3cc(C(C)C)n(C)c3n1)C(CC(C)(C)C1CC1)CO2 (centres unmarked) [Compound I-108] |
| +++ (+++ is >60%) | Cc1cccc(C)c1-c1cc2nc(n1)NS(=O)(=O)c1cccc(c1)C(=O)N(Cc1cnc3oc(C4CC4)cc3n1)[C@H](CC1(C)CCC1)CO2 [Compound I-116] |
| +++ (+++ is >60%) | Cc1cccc(C)c1-c1cc2nc(n1)NS(=O)(=O)c1cccc(c1)C(=O)N(Cc1nc3cc(C4(C)CC4)oc3cc1F)[C@H](CC13CC(C1)C3)CO2 [Compound I-233] |
| +++ (+++ is >60%) | Cc1cccc(C)c1-c1cc2nc(n1)NS(=O)(=O)c1cccc(c1)C(=O)N(Cc1cnc3oc(C(C)C)c(C)c3n1)[C@H](COC1CCCC1)CO2 [Compound I-119] |
| +++ (+++ is >60%) | Cc1cccc(C)c1-c1nc2nc(c1C)OC[C@@H](COC(C)C)N(Cc1cnc3cc(C(C)C)n(C)c3n1)C(=O)c1cccc(c1)S(=O)(=O)N2 [Compound I-189] |
| +++ (+++ is >60%) | Cc1cccc(C)c1-c1cc2nc(n1)NS(=O)(=O)c1cccc(c1)C(=O)N(Cc1cnc3oc(C(C)C)c(C)c3n1)[C@H](CC(C)(C)F)CO2 [Compound I-48] |
| +++ (+++ is >60%) | Cc1cccc(C)c1-c1cc2nc(n1)NS(=O)(=O)c1cccc(c1)C(=O)N(Cc1cnc3oc(C(C)C)cc3n1)[C@H](CC(C)(C)C(F)(F)F)CO2 [Compound I-60] |
| +++ (+++ is >60%) | Cc1cccc(C)c1-c1cc2nc(n1)NS(=O)(=O)c1cccc(c1)C(=O)N(Cc1cnc3oc(C4CC4)cc3n1)[C@H](C[C@@H]1CCCO1)CO2 (stereo in doubt) [Compound I-45] |
| +++ (+++ is >60%) | Cc1cccc(C)c1-c1cc2nc(n1)NS(=O)(=O)c1cccc(c1)C(=O)N(Cc1cnc3oc(C4CC4)cc3n1)[C@H](COC1CC1)CO2 [Compound I-115] |
| +++ (+++ is >60%) | Cc1cccc(C)c1-c1cc2nc(n1)NS(=O)(=O)c1cccc(c1)C(=O)N(Cc1ccc3oc(C4(C)CC4)cc3n1)[C@H](CC1(C)CC1)CO2 [Compound I-226] |
| +++ (+++ is >60%) | Cc1cccc(C)c1-c1cc2nc(n1)NS(=O)(=O)c1cccc(c1)C(=O)N(Cc1cnc3c(n1)CN(C(C)C)C3=O)[C@@H](CCC1(C)CC1)CO2 (stereo in doubt) [III-19] |

Same assay, conditions: with 44 nM potentiator and 18 μM Tezacaftor, 20% human serum

| D act. at 1 μM (%) | Compound |
| --- | --- |
| +++ (+++ is >60%) | Cc1cccc(C)c1-c1cc2nc(n1)NS(=O)(=O)c1cccc(c1)C(=O)N(Cc1cnc3oc([C@](C)(O)CO)cc3n1)[C@H](CC1(C)CC1)CO2 (single isomer, unassigned) [IV-15] |
| +++ (+++ is >60%) | Cc1cccc(C)c1-c1cc2nc(n1)NS(=O)(=O)c1cccc(c1)C(=O)N(Cc1cnc3oc(C(C)(C)C)cc3n1)[C@H](CC1CCCCC1)CO2 [IV-9] |
| +++ (+++ is >60%) | Cc1cccc(C)c1-c1cc2nc(n1)NS(=O)(=O)c1cccc(c1)C(=O)N(Cc1cnc3sc(C4CC4)cc3n1)[C@H](CC1(C)CC1)CO2 [IV-41] |
